Laboratory results taken from ChEMBL document CHEMBL1909046, “DrugMatrix in vitro pharmacology data”.

Columns and labels:
Cytochrome P450 2A6 = target: T1, Cytochrome P450 2A6 (Homo sapiens, UniProt P11509); details: bti-tn-5b1-4; note: in other assays of this panel Not Active means under 50% inhibition at 10 µM
T1 sequence (P11509 whole entry): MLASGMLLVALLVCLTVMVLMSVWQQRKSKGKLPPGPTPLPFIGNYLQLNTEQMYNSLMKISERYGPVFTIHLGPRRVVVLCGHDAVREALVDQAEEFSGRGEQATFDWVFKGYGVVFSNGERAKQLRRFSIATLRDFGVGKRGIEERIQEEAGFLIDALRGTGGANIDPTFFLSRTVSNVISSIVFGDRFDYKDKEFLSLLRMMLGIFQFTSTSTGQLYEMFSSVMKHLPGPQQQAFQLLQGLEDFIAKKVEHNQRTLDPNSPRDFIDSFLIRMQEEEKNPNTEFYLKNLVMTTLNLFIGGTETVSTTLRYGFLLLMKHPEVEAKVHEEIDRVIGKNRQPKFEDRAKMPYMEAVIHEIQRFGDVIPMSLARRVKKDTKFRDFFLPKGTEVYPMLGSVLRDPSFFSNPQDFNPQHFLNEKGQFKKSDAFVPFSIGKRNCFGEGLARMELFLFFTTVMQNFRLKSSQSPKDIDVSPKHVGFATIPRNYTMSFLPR

[1] = DRUGMATRIX: Sigma2 radioligand binding (ligand: [3H] Ifenprodil); type: cell membranes, Rattus norvegicus, Wistar, Brain, Membrane; details: Not Active = under 50% inhibition at 10 µM
[2] = DRUGMATRIX: Calcium Channel Type L, Dihydropyridine radioligand binding (ligand: [3H] Nitrendipine); type: cell membranes, Rattus norvegicus, Wistar, Cerebral cortex, Membrane; details: Not Active = under 50% inhibition at 10 µM
Glucocorticoid receptor = target: T2, Glucocorticoid receptor (Homo sapiens, UniProt P04150); details: hela s3; note: in other assays of this panel Not Active means under 50% inhibition at 10 µM
T2 sequence (P04150 whole entry): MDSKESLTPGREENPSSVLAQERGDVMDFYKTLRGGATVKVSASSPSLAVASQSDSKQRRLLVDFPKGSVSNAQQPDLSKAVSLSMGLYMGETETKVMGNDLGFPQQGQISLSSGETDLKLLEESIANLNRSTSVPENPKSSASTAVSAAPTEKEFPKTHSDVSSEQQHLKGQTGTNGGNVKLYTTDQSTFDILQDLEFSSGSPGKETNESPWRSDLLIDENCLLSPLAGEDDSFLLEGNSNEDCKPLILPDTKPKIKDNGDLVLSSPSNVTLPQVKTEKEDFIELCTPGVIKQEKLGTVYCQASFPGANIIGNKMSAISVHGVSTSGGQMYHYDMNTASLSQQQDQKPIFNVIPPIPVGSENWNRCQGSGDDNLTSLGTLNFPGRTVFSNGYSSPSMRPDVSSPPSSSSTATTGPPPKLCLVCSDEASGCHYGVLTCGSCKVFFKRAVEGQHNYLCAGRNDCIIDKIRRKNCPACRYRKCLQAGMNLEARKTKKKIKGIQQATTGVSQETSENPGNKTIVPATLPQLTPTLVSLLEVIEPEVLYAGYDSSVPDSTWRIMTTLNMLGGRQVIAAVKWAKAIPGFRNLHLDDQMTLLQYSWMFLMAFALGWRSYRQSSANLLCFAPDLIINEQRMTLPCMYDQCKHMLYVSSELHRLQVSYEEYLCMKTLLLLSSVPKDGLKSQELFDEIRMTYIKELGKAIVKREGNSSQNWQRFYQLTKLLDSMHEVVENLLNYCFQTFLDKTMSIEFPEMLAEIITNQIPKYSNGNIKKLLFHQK

[3] = target: 5-hydroxytryptamine receptor 1B (Rattus norvegicus, UniProt P28564); type: cell membranes, Wistar, Cerebral cortex, Membrane; note: in other assays of this panel Not Active means under 50% inhibition at 10 µM
5-hydroxytryptamine receptor 1B, sequence (P28564 whole entry): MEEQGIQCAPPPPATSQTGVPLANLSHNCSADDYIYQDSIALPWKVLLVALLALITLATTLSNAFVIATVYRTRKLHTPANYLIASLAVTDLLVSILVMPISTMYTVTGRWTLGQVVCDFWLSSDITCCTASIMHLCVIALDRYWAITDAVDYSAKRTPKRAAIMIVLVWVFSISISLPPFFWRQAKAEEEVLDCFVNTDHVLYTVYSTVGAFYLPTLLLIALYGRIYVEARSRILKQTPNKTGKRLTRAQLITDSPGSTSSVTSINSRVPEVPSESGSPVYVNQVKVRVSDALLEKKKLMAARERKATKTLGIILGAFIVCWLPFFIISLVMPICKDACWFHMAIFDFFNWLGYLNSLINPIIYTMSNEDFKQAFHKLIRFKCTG

B2 bradykinin receptor = target: T3, B2 bradykinin receptor (Homo sapiens, UniProt P30411); type: cell membranes, Membrane; details: chem-1; note: in other assays of this panel Not Active means under 50% inhibition at 10 µM
T3 sequence (P30411 whole entry): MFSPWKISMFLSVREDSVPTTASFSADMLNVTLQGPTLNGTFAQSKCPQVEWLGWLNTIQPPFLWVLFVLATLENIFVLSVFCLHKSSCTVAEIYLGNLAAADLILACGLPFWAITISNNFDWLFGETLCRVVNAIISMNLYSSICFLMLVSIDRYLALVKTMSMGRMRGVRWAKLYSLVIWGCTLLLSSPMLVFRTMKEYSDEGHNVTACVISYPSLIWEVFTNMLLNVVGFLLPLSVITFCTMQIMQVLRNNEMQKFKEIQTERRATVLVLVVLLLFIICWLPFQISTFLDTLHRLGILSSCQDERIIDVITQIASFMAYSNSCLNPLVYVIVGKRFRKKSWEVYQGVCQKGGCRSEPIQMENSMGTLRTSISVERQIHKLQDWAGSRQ

[4] = target: Protein kinase C alpha type (Homo sapiens, UniProt P17252); type: cell-based; details: sf9
[5] = DRUGMATRIX: Nicotinic Acetylcholine radioligand binding (ligand: [125I] Epibatidine); type: cell membranes, Membrane; details: imr-32; Not Active = under 50% inhibition at 10 µM

NNc1nncc2ccccc12 [HYDRALAZINE]
Not Active: IC50 (Cytochrome P450 2A6) | Ki (Cytochrome P450 2A6) | IC50 [1] | Ki [1] | IC50 [2] | Ki [2] | IC50 (Glucocorticoid receptor) | IC50 [3] | IC50 (B2 bradykinin receptor) | IC50 [4] | IC50 [5] | Ki [5]

COC1=C(OC)C(=O)C(CCCCCCCCCCO)=C(C)C1=O [IDEBENONE]
Not Active: IC50 (Cytochrome P450 2A6) | Ki (Cytochrome P450 2A6) | IC50 [1] | Ki [1] | IC50 [2] | Ki [2] | IC50 (Glucocorticoid receptor) | IC50 [3] | IC50 (B2 bradykinin receptor) | IC50 [4] | IC50 [5] | Ki [5]

CC(C)NNC(=O)c1ccncc1 [IPRONIAZID]
Not Active: IC50 (Cytochrome P450 2A6) | Ki (Cytochrome P450 2A6) | IC50 [1] | Ki [1] | IC50 [2] | Ki [2] | IC50 (Glucocorticoid receptor) | IC50 [3] | IC50 (B2 bradykinin receptor) | IC50 [4] | IC50 [5] | Ki [5]

Cc1c(OCC(F)(F)F)ccnc1C[S+]([O-])c1nc2ccccc2[nH]1 (stereo unspecified) [LANSOPRAZOLE]
Not Active: IC50 (Cytochrome P450 2A6) | Ki (Cytochrome P450 2A6) | IC50 [1] | Ki [1] | IC50 [2] | Ki [2] | IC50 (Glucocorticoid receptor) | IC50 [3] | IC50 (B2 bradykinin receptor) | IC50 [4] | IC50 [5] | Ki [5]

O=c1cc(N2CCOCC2)oc2c(-c3ccccc3)cccc12 [LY-294002]
Not Active: IC50 (Cytochrome P450 2A6) | Ki (Cytochrome P450 2A6) | IC50 [1] | Ki [1] | IC50 [2] | Ki [2] | IC50 (Glucocorticoid receptor) | IC50 [3] | IC50 (B2 bradykinin receptor) | IC50 [4] | IC50 [5] | Ki [5]

COc1ccc2[nH]cc(CCNC(C)=O)c2c1 [MELATONIN]
Not Active: IC50 (Cytochrome P450 2A6) | Ki (Cytochrome P450 2A6) | IC50 [1] | Ki [1] | IC50 [2] | Ki [2] | IC50 (Glucocorticoid receptor) | IC50 [3] | IC50 (B2 bradykinin receptor) | IC50 [4] | IC50 [5] | Ki [5]

NC(=O)C[S+]([O-])C(c1ccccc1)c1ccccc1 (stereo unspecified) [MODAFINIL]
Not Active: IC50 (Cytochrome P450 2A6) | Ki (Cytochrome P450 2A6) | IC50 [1] | Ki [1] | IC50 [2] | Ki [2] | IC50 (Glucocorticoid receptor) | IC50 [3] | IC50 (B2 bradykinin receptor) | IC50 [4] | IC50 [5] | Ki [5]

CCN(CC)CCOCCC1=CCC2CC1C2(C)C (stereo unspecified) [MYRTECAINE]
Not Active: IC50 (Cytochrome P450 2A6) | Ki (Cytochrome P450 2A6) | IC50 [1] | Ki [1] | IC50 [2] | Ki [2] | IC50 (Glucocorticoid receptor) | IC50 [3] | IC50 (B2 bradykinin receptor) | IC50 [4] | IC50 [5] | Ki [5]

O=C(O)c1cccnc1Nc1cccc(C(F)(F)F)c1 [NIFLUMIC ACID]
Not Active: IC50 (Cytochrome P450 2A6) | Ki (Cytochrome P450 2A6) | IC50 [1] | Ki [1] | IC50 [2] | Ki [2] | IC50 (Glucocorticoid receptor) | IC50 [3] | IC50 (B2 bradykinin receptor) | IC50 [4] | IC50 [5] | Ki [5]

O=C(N/N=C/c1ccc([N+](=O)[O-])o1)c1cc([N+](=O)[O-])cc([N+](=O)[O-])c1O [NIFURSOL]
Not Active: IC50 (Cytochrome P450 2A6) | Ki (Cytochrome P450 2A6) | IC50 [1] | Ki [1] | IC50 [2] | Ki [2] | IC50 (Glucocorticoid receptor) | IC50 [3] | IC50 (B2 bradykinin receptor) | IC50 [4] | IC50 [5] | Ki [5]

COC(=O)Nc1nc2ccc(C(=O)c3cccs3)cc2[nH]1 [NOCODAZOLE]
Not Active: IC50 (Cytochrome P450 2A6) | Ki (Cytochrome P450 2A6) | IC50 [1] | Ki [1] | IC50 [2] | Ki [2] | IC50 (Glucocorticoid receptor) | IC50 [3] | IC50 (B2 bradykinin receptor) | IC50 [4] | IC50 [5] | Ki [5]

COC(=O)Nc1nc2ccc([S+]([O-])c3ccccc3)cc2[nH]1 (stereo unspecified) [OXFENDAZOLE]
Not Active: IC50 (Cytochrome P450 2A6) | Ki (Cytochrome P450 2A6) | IC50 [1] | Ki [1] | IC50 [2] | Ki [2] | IC50 (Glucocorticoid receptor) | IC50 [3] | IC50 (B2 bradykinin receptor) | IC50 [4] | IC50 [5] | Ki [5]

CC(=O)O[C@H]1C(=O)[C@@]2(C)[C@H]([C@H](OC(=O)c3ccccc3)[C@]3(O)C[C@H](OC(=O)[C@H](O)[C@@H](NC(=O)c4ccccc4)c4ccccc4)C(C)=C1C3(C)C)[C@]1(OC(C)=O)CO[C@@H]1C[C@@H]2O [PACLITAXEL]
Not Active: IC50 (Cytochrome P450 2A6) | Ki (Cytochrome P450 2A6) | IC50 [1] | Ki [1] | IC50 [2] | Ki [2] | IC50 (Glucocorticoid receptor) | IC50 [3] | IC50 (B2 bradykinin receptor) | IC50 [4] | IC50 [5] | Ki [5]
